Reference: paper PMC6023887, “GTP-binding facilitates EB1 recruitment onto microtubules by relieving its auto-inhibition” (Scientific Reports, 2018)

T1: full length EB1 (His-tagged) (Homo sapiens, UniProt Q15691)
T1 construct: gene MAPRE1; full length 268 residues, His-tagged, recombinant, purified as in authors' earlier work; dimer
T1 sequence (Q15691 1-268): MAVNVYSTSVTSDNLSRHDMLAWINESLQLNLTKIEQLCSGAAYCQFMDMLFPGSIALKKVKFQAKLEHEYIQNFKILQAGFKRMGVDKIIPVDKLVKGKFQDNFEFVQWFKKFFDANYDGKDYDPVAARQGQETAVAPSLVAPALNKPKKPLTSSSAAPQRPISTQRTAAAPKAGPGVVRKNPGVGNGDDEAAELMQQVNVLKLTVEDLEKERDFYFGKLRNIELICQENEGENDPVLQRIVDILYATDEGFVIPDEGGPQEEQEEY

T2: EB1n (EB1 N-terminus, residues 1-151) (Homo sapiens, UniProt Q15691)
T2 construct: gene MAPRE1; N-terminal fragment 1-151 containing CH domain (1-130); pET3d, E. coli BL21(DE3), untagged, cation exchange; mainly monomer
T2 sequence (Q15691 1-151): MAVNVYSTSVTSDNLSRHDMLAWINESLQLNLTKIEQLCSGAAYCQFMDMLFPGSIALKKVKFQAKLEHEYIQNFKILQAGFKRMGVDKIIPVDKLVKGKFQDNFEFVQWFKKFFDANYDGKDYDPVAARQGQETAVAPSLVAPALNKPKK


Columns and labels:
[1] = target: T1, full length EB1 (His-tagged); test: isothermal titration calorimetry; format: binding; conditions: 80 mM PIPES, 1 mM EGTA, 1 mM MgCl2, pH 6.9, 25 °C; N fixed at 2; range over three experiments, printed jointly for EB1n and full length; saturation incomplete
[2] = target: T2, EB1n (EB1 N-terminus, residues 1-151); test: isothermal titration calorimetry; format: binding; conditions: 80 mM PIPES, 1 mM EGTA, 1 mM MgCl2, pH 6.9, 25 °C; N fitted freely; range over three experiments, printed jointly for EB1n and full length; noisy data; NMR in other buffers gives mM Kd
[3] = target: Microtubules polymerized from tubulin with GTPγS (UniProt P02550 1-451); test: binding to microtubules held on coverslips, wash, SDS-PAGE of the bound protein; microtubules (40 µM tubulin, GTPγS) on poly-lysine coverslips, washed; 10 µM EB1-GFP protein added, 10 min at 37 °C (15 min in the legend), BRB80; unbound protein washed off; Coomassie bands normalized against tubulin; the paper calls it sedimentation; conditions: both partners purified
[4] = target: Rhodamine labeled microtubules polymerized with GTPγS (UniProt P02550 1-451, rhodamine on part of the tubulin (3 µM rhodamine-labeled tubulin with 40 µM tubulin)); which chain carries it is not stated | rhodamine on part of the tubulin (3 µM rhodamine-labeled tubulin with 40 …); test: confocal fluorescence imaging of purified EB1-GFP on microtubules held on coverslips; rhodamine microtubules (GTPγS) on poly-lysine coverslips, washed free of GTPγS; 10 µM EB1-GFP protein added, 10 min, 37 °C, BRB80 pH 6.9; fixed with 1% glutaraldehyde; GFP intensity per pixel along microtubules; conditions: both partners purified

Kd [1]	Kd [2]	fold amount bound to microtubules against wild-type EB1 [3]	fold increase of GFP intensity per pixel on microtubules against wild-type EB1-GFP [4]	Molecule
~10 to ~30 µM	~10 to ~30 µM	–	–	Nc1nc2c(ncn2[C@@H]2O[C@H](COP(=O)(O)OP(=O)(O)OP(=O)(O)O)[C@@H](O)[C@H]2O)c(=O)[nH]1 [GTP]
–	–	~1.5 fold	~2 fold	EB1 R17A H18A-GFP (natural protein, human, UniProt Q15691 1-268, looked up, EB1, human, full-length cDNA with R17A and H18A; Made with the WT EB1-GFP pET22b eGFP plasmid as template; also called R17A H18A EB1-GFP; mutant EB1-GFP; source: E. coli BL21 (DE3), purified (Ni-NTA)) MAVNVYSTSVTSDNLSAADMLAWINESLQLNLTKIEQLCSGAAYCQFMDMLFPGSIALKKVKFQAKLEHEYIQNFKILQAGFKRMGVDKIIPVDKLVKGKFQDNFEFVQWFKKFFDANYDGKDYDPVAARQGQETAVAPSLVAPALNKPKKPLTSSSAAPQRPISTQRTAAAPKAGPGVVRKNPGVGNGDDEAAELMQQVNVLKLTVEDLEKERDFYFGKLRNIELICQENEGENDPVLQRIVDILYATDEGFVIPDEGGPQEEQEEY
